Assay results as given in paper PMC11314561, “Design and Synthesis of Novel Aminoindazole-pyrrolo[2,3-b]pyridine Inhibitors of IKKα That Selectively Perturb Cellular Non-Canonical NF-κB Signalling” (Molecules, 2024).

Assays:
Assay in all cases: kinase panel
Assay type in all cases: biochemical
CHK1(h) = target: T1, CHK1(h) (Homo sapiens, UniProt O14757)
T1 sequence (O14757 1-476): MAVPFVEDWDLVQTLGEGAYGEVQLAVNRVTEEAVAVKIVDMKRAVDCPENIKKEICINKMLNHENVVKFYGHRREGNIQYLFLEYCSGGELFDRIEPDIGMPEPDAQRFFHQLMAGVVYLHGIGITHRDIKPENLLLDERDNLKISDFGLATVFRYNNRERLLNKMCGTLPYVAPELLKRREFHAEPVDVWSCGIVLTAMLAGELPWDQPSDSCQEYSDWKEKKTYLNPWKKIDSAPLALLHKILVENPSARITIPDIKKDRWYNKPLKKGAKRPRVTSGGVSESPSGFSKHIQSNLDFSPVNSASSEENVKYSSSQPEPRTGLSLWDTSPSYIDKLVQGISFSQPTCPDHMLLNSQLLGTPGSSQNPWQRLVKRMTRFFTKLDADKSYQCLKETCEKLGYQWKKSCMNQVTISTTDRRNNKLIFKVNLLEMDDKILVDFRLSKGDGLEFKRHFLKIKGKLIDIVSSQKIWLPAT
Summary of the method: (§1)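 % inhibition read-out; kinome panel of 231 kinases; one analogue run on a selected 98-kinase subset only.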

CaMKIV(h) = target: T2, CaMKIV(h) (Homo sapiens, UniProt Q16566)
T2 sequence (Q16566 1-473): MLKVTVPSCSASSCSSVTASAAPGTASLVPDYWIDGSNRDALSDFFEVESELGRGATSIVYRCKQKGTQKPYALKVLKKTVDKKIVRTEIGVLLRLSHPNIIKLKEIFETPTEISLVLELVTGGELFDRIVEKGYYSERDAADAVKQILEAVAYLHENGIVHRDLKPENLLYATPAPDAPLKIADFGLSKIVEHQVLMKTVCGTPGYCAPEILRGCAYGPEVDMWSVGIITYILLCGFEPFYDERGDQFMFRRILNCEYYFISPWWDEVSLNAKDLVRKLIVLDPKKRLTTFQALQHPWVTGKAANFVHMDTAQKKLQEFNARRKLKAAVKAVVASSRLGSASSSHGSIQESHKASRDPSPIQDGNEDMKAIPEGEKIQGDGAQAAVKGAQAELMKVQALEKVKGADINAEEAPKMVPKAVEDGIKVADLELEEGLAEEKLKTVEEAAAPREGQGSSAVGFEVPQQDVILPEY
Summary of the method: as §1

Flt3(h) = target: T3, Flt3(h) (Homo sapiens, UniProt P36888)
T3 sequence (P36888 27-993): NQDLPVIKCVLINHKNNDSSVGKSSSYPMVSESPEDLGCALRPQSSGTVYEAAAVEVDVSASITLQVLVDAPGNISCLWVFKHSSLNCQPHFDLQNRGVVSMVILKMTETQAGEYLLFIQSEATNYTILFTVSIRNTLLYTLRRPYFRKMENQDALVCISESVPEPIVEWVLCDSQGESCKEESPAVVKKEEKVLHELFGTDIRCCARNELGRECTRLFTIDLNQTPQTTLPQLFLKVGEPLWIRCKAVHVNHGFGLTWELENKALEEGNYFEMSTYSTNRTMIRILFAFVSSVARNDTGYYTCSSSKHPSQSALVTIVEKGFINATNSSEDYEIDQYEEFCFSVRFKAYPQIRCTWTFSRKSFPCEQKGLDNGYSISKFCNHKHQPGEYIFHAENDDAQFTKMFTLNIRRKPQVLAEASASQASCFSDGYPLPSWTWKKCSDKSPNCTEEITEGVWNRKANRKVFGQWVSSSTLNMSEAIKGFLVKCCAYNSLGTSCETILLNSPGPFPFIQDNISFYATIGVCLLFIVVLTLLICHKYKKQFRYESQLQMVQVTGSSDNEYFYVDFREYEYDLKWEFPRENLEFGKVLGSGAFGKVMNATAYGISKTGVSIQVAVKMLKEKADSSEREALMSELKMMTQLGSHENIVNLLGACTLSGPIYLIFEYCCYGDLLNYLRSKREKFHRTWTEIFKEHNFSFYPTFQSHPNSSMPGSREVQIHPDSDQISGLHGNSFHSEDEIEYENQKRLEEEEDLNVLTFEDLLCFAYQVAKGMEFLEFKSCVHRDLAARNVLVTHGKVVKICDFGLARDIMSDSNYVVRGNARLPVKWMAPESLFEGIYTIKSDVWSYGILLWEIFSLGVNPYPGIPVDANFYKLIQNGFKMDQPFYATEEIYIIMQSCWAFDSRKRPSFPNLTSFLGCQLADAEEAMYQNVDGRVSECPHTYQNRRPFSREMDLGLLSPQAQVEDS
Summary of the method: as §1

PKCμ(h) = target: T4, PKCμ(h) (Homo sapiens, UniProt Q15139)
T4 sequence (Q15139 1-912): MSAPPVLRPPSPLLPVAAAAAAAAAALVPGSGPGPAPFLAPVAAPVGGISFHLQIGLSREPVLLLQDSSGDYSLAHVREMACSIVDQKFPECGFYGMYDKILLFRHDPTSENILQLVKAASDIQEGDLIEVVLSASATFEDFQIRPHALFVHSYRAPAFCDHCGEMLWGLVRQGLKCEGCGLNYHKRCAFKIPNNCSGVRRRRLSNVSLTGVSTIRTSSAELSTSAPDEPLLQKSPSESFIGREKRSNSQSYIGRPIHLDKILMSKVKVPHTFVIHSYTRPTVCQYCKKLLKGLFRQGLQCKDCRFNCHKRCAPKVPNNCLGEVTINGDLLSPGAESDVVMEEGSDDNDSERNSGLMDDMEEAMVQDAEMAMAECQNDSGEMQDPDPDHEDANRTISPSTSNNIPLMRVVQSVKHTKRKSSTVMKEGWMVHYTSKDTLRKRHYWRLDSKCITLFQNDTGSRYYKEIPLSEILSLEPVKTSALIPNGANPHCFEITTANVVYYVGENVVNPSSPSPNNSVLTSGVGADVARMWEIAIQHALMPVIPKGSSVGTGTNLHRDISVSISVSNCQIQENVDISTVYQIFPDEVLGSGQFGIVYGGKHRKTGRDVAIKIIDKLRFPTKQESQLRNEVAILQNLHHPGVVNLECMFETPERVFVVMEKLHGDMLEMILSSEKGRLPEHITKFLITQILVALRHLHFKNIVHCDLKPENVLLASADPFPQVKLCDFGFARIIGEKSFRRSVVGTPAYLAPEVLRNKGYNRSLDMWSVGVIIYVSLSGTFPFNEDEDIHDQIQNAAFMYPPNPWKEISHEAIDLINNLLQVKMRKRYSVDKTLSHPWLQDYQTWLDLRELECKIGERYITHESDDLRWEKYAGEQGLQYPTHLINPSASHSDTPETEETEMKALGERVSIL
Summary of the method: as §1

TrkB(h) = TrkB(h) (Homo sapiens, UniProt Q16620)
Summary of the method: as §1

Sequence of TrkB(h) (Q16620 32-822): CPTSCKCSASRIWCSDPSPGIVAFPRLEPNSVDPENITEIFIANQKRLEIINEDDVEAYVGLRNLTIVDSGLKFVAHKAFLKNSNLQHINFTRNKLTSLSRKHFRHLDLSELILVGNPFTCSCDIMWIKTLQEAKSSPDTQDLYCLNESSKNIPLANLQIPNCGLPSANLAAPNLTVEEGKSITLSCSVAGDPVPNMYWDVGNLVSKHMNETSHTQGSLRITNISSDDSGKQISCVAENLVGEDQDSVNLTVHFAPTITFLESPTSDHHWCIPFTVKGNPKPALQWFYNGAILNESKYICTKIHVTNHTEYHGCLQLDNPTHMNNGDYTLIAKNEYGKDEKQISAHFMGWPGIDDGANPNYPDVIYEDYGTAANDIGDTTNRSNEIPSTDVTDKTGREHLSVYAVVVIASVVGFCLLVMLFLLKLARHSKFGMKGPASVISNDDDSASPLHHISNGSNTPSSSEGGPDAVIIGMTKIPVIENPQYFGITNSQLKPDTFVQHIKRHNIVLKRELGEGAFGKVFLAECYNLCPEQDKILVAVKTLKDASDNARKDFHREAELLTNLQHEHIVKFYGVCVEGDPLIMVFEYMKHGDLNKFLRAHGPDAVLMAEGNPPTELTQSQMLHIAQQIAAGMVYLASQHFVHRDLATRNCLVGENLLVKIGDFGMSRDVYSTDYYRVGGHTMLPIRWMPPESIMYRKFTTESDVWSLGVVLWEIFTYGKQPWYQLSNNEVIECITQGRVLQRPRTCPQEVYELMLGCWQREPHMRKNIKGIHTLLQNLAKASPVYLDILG

| SMILES | inhibition at 1 µM (CHK1(h)) [%] | inhibition at 1 µM (CaMKIV(h)) [%] | inhibition at 1 µM (Flt3(h)) [%] | inhibition at 1 µM (PKCμ(h)) [%] | inhibition at 1 µM (TrkB(h)) [%] |
| --- | --- | --- | --- | --- | --- |
| Nc1n[nH]c2ccc(-c3ccnc4[nH]c(-c5cccc(OCc6ccccc6)c5)cc34)cc12 [Compound 5r [SU1261]] | -2 | 6 | 46 | 18 | -37 |
| Nc1n[nH]c2ccc(-c3ccnc4[nH]c(-c5ccnc(OCc6ccccc6)c5)cc34)cc12 [Compound 6g [SU1349]] | -9 | -9 | 36 | -9 | -34 |
| Nc1n[nH]c2ccc(-c3ccnc4[nH]c(-c5ccccc5)cc34)cc12 [Compound 4] | -2 | 4 | 102 | 21 | 65 |
